The text below walks through data of US6984649B1, “Pyridine derivatives” (Bayer Aktiengesellschaft, priority 2000, dated 2006).

The subject of the assay is A549 human lung epithelium cell line. Briefly: RANTES production in response to TNF-α from A549 cells. As to conditions: Homo sapiens, A549, A549 cells, 100 ng/ml TNF-α, read-out: Cellular activity grade (A549) (Cellular IC50). The class given is cell-based. The essentials:
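RANTES released into supernatant was measured by DELFIA-type sandwich immunoassay, Eu-labelled detection antibody, 340 nm excitation/615 nm emission, recombinant RANTES standard. Beforehand, cells seeded at 4×10^4/well received test compound (1% DMSO) for 1 h at 37 °C, followed by 24 h TNF-α (100 ng/ml) stimulation.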
As for `O=c1[nH]c2nc(-c3c(O)cccc3OCC3CC3)cc(C3CCCNC3)c2cc1[N+](=O)[O-]` (centres unmarked) [Example 25-05], the IC50 (as a rule, the midpoint of a concentration-inhibition curve) was in the range of 1000 to 10000 nM.

Turning to `N#Cc1cc2c(C3CCCNC3)cc(-c3c(O)cccc3OCC3CC3)nc2[nH]c1=O` (centres unmarked) [Example 25-06], the IC50 is below 1000 nM. For `O=c1[nH]c2nc(-c3c(O)cccc3OCC3CC3)cc(C3CCCNC3)c2cc1S(=O)(=O)c1ccccc1` (centres unmarked) [Example 25-07] the value was below 1000 nM; for `NC(=O)c1cc2c(C3CCCNC3)cc(-c3c(O)cccc3OCC3CC3)nc2[nH]c1=O` (centres unmarked) [Example 25-08], below 1000 nM.

On to `CCOC(=O)C1Cc2c(C3CCCNC3)cc(-c3c(O)cccc3OCC3CC3)nc2NC1=O` (centres unmarked) [Example 26-03], for which the concentration for half-maximal inhibition (IC50) was below 1000 nM. In the case of `CCOC(=O)C1Cc2c(C3CCNCC3)cc(-c3c(O)cccc3OCC3CC3)nc2NC1=O` (centres unmarked) [Example 26-04], the IC50 was below 1000 nM. On to `NC(=O)C1Cc2c(C3CCCNC3)cc(-c3c(O)cccc3OCC3CC3)nc2NC1=O` (centres unmarked) [Example 26-05], for which the concentration for half-maximal inhibition (IC50) is below 1000 nM. Take `CCCOc1cccc(O)c1-c1cc(C2CCCNC2)c2c(n1)NC(=O)C(C(=O)OCC)C2` (centres unmarked) [Example 26-06]: the half-inhibitory concentration (IC50) is below 1000 nM.

On to `CCCOc1cccc(O)c1-c1cc(C2CCCNC2)c2c(n1)NC(=O)CC2` (centres unmarked) [Example 27-02], for which the IC50 was below 1000 nM. The result for `O=C1CCc2c(C3CCCNC3)cc(-c3c(O)cccc3OCC3CC3)nc2N1` (centres unmarked) [Example 27-03, 7-[2-(cyclopropylmethoxy)-6-hydroxyphenyl]-5-(3-piperidinyl)-3,4-dihydro-1,8-naphthyridin-2(1H)-one] reads below 1000 nM; that for `O=C1CCc2c(C3CCNCC3)cc(-c3c(O)cccc3OCC3CC3)nc2N1` [Example 27-04], below 1000 nM. As for `CCCOc1cccc(O)c1-c1cc(C2CCNCC2)c2c(n1)NC(=O)CC2` [Example 27-05], the IC50 was below 1000 nM. For `CNC(=O)c1cc2c(C3CCCNC3)cc(-c3c(O)cccc3OCC3CC3)nc2[nH]c1=O` (centres unmarked) [Example 31-03], the IC50 is below 1000 nM. Regarding `CN(C)C(=O)c1cc2c(C3CCCNC3)cc(-c3c(O)cccc3OCC3CC3)nc2[nH]c1=O` (centres unmarked) [Example 31-04], the IC50 is 1000 to 10000 nM. Regarding `O=C(c1cc2c(C3CCCNC3)cc(-c3c(O)cccc3OCC3CC3)nc2[nH]c1=O)N1CCCC1` (centres unmarked) [Example 31-05], the 50% inhibitory concentration (IC50) was in the range of 1000 to 10000 nM. With `O=C(NCc1ccccc1)c1cc2c(C3CCCNC3)cc(-c3c(O)cccc3OCC3CC3)nc2[nH]c1=O` (centres unmarked) [Example 31-06], the IC50 was below 1000 nM. Regarding `COCCNC(=O)c1cc2c(C3CCCNC3)cc(-c3c(O)cccc3OCC3CC3)nc2[nH]c1=O` (centres unmarked) [Example 31-07], the half-inhibitory concentration (IC50) is below 1000 nM. On to `O=C(c1cc2c(C3CCCNC3)cc(-c3c(O)cccc3OCC3CC3)nc2[nH]c1=O)N1CCOCC1` (centres unmarked) [Example 31-08], for which the half-maximal inhibitory concentration (IC50) fell in the range of 1000 to 10000 nM. Regarding `O=C(c1cc2c(C3CCCNC3)cc(-c3c(O)cccc3OCC3CC3)nc2[nH]c1=O)N1CCNCC1` (centres unmarked) [Example 31-09], the IC50 was above 10000 nM.

Consider `CC(C)NC(=O)c1cc2c(C3CCCNC3)cc(-c3c(O)cccc3OCC3CC3)nc2[nH]c1=O` (centres unmarked) [Example 31-10], for which the concentration for half-maximal inhibition (IC50) was below 1000 nM.

As for `CN(C)CCNC(=O)c1cc2c(C3CCCNC3)cc(-c3c(O)cccc3OCC3CC3)nc2[nH]c1=O` (centres unmarked) [Example 31-11], the IC50 is below 1000 nM. As to `O=C(NC1Cc2ccccc2C1)c1cc2c(C3CCCNC3)cc(-c3c(O)cccc3OCC3CC3)nc2[nH]c1=O` (centres unmarked) [Example 31-12], the IC50 is below 1000 nM.

For the compound `O=C(NC(c1ccccc1)c1ccccc1)c1cc2c(C3CCCNC3)cc(-c3c(O)cccc3OCC3CC3)nc2[nH]c1=O` (centres unmarked) [Example 31-13], the IC50 is below 1000 nM.

With `C[C@H](NC(=O)c1cc2c(C3CCCNC3)cc(-c3c(O)cccc3OCC3CC3)nc2[nH]c1=O)c1ccccc1` (some centres unmarked) [Example 31-14], the IC50 is below 1000 nM. For `C[C@@H](NC(=O)c1cc2c(C3CCCNC3)cc(-c3c(O)cccc3OCC3CC3)nc2[nH]c1=O)c1ccccc1` (some centres unmarked) [Example 31-15] the value was below 1000 nM. Regarding `C[C@H](NC(=O)c1cc2c(C3CCCNC3)cc(-c3c(O)cccc3OCC3CC3)nc2[nH]c1=O)C(=O)O` (some centres unmarked) [Example 31-16], the half-inhibitory concentration (IC50) lay in the range of 1000 to 10000 nM. The result for `O=C(NCCc1ccccc1)c1cc2c(C3CCCNC3)cc(-c3c(O)cccc3OCC3CC3)nc2[nH]c1=O` (centres unmarked) [Example 31-17] reads 1000 to 10000 nM; that for `O=C(NC1CCCCC1)c1cc2c(C3CCCNC3)cc(-c3c(O)cccc3OCC3CC3)nc2[nH]c1=O` (centres unmarked) [Example 31-18], below 1000 nM; that for `O=C(NCC1CCCCC1)c1cc2c(C3CCCNC3)cc(-c3c(O)cccc3OCC3CC3)nc2[nH]c1=O` (centres unmarked) [Example 31-19], above 10000 nM. In the case of `O=C(NCCO)c1cc2c(C3CCCNC3)cc(-c3c(O)cccc3OCC3CC3)nc2[nH]c1=O` (centres unmarked) [Example 31-20], the half-inhibitory concentration (IC50) lay within 1000 to 10000 nM. Consider `O=C(NC1CC1)c1cc2c(C3CCCNC3)cc(-c3c(O)cccc3OCC3CC3)nc2[nH]c1=O` (centres unmarked) [Example 31-21], for which the IC50 is below 1000 nM.

With `O=C(NC1CCC1)c1cc2c(C3CCCNC3)cc(-c3c(O)cccc3OCC3CC3)nc2[nH]c1=O` (centres unmarked) [Example 31-22], the 50% inhibitory concentration (IC50) was below 1000 nM. Turning to `O=C(NC1CCCC1)c1cc2c(C3CCCNC3)cc(-c3c(O)cccc3OCC3CC3)nc2[nH]c1=O` (centres unmarked) [Example 31-23], the IC50 is below 1000 nM.

For the compound `O=C(NC1CCCCCC1)c1cc2c(C3CCCNC3)cc(-c3c(O)cccc3OCC3CC3)nc2[nH]c1=O` (centres unmarked) [Example 31-24], the IC50 is below 1000 nM. Consider `CCC(CC)NC(=O)c1cc2c(C3CCCNC3)cc(-c3c(O)cccc3OCC3CC3)nc2[nH]c1=O` (centres unmarked) [Example 31-25], for which the IC50 was below 1000 nM. For the compound `CCCC(CCC)NC(=O)c1cc2c(C3CCCNC3)cc(-c3c(O)cccc3OCC3CC3)nc2[nH]c1=O` (centres unmarked) [Example 31-26], the 50% inhibitory concentration (IC50) is below 1000 nM. Regarding `O=C(NCC(F)(F)F)c1cc2c(C3CCCNC3)cc(-c3c(O)cccc3OCC3CC3)nc2[nH]c1=O` (centres unmarked) [Example 31-27], the half-inhibitory concentration (IC50) was below 1000 nM.

Consider `N#Cc1c(N2CCCC(C(N)=O)C2)cc(-c2ccccc2O)nc1N` (centres unmarked) [Example 34-06], for which the IC50 was above 10000 nM.

As for `N#Cc1c(NC2CCNCC2)cc(-c2ccccc2O)nc1N` [Example 34-07], the IC50 was 1000 to 10000 nM. With `N#Cc1c(N2CCCNCC2)cc(-c2ccccc2O)nc1N` [Example 34-08], the IC50 was 1000 to 10000 nM. For `N#Cc1c(N2CCNCC2)cc(-c2ccccc2O)nc1N` [Example 34-09], the half-inhibitory concentration (IC50) was 1000 to 10000 nM. On to `N#Cc1c(NCCN)cc(-c2ccccc2O)nc1N` [Example 34-10], for which the concentration for half-maximal inhibition (IC50) was below 1000 nM. Take `N#Cc1c(NCCCN)cc(-c2ccccc2O)nc1N` [Example 34-11]: the IC50 is 1000 to 10000 nM.

Regarding `CNCCNc1cc(-c2ccccc2O)nc(N)c1C#N` [Example 34-12], the IC50 is below 1000 nM. Consider `N#Cc1c(NCCNCc2ccccc2)cc(-c2ccccc2O)nc1N` [Example 34-13], for which the IC50 is below 1000 nM. For the compound `N#Cc1c(NCCNCc2ccccc2)cc(-c2c(O)cccc2OCC2CC2)nc1N` [Example 34-15], the IC50 is below 1000 nM. The result for `N#Cc1c(NCCNC(=O)c2ccccc2)cc(-c2c(O)cccc2OCC2CC2)nc1N` [Example 34-16] reads below 1000 nM. For `N#Cc1c(NCCNS(=O)(=O)c2ccccc2)cc(-c2c(O)cccc2OCC2CC2)nc1N` [Example 34-17], the IC50 is above 10000 nM. `N#Cc1c(NCCNC(=O)Nc2ccccc2)cc(-c2c(O)cccc2OCC2CC2)nc1N` [Example 34-18]: the half-inhibitory concentration (IC50) was below 1000 nM. For `CC(=O)NCCNc1cc(-c2c(O)cccc2OCC2CC2)nc(N)c1C#N` [Example 34-19], the 50% inhibitory concentration (IC50) is below 1000 nM.
